Key:
C. albicans [1] = assay: Yeast-to-hyphae transition (FBS-induced hyphae formation); format: cell-based; details: FBS-induced (10%), ILs 25 µM, 2 h, 37 °C; control 94 ± 0.6%
Procedure: (§1) Fungal adhesion to biomedical surfaces is strongly related to the structure of the cell wall, and the presence of adhesins (Als proteins) on the surface of the cell. In turn, the progression to biofilm formation is dependent on the ability of C. albicans to form hyphae. In conditions similar to those above (ILs conc. = 25 µM), we examined C. albicans cell wall integrity, its ability to form hyphae, and the level of ALS genes expression, encoding Als1 and Als5 adhesins (Figure 3). […] Despite some reduction, the result was not statistically significant (p = 0.12). On the other hand, after the treatment with IL 2a, the expression of ALS1 and ALS5 genes was reduced by 50 or 55%, respectively (Figure 3C). The results were statistically significant in both cases (p = 0.04 for either ALS gene). However, in case of compounds with alkyl substituents (1a and 1b), the reduction of gene expression was to a lesser degree. […] Despite observing a chain-length dependence, the results were not statistically significant (p = 0.07 for both ALS gene after treatment with 1b).
Experiments were performed as described before, with modifications. YPD-grown C. albicans were pelleted, washed with fresh YPD medium and resuspended in YPD medium (OD600 = 0.4). The suspensions were treated with ILs (conc. = 25 µM) and FBS (final conc. = 10%) for 2 h at 37 °C. The samples were observed under the Zeiss Axio Imager A2 microscope equipped with Canon PowerShot G10 camera for assessment of cell morphology. For quantitative estimation, cells of each assay were counted in three independent repetitions determining the percentage of hyphae forming cells.

ALS5 = assay: Real time quantitative PCR, relative gene expression; format: cell-based, C. albicans; details: ILs 25 µM, 2 h; relative to untreated cells (100%)
Procedure: as §1
(§2) Figure 3 (A) C. albicans calcofluor white staining following a 2 h treatment with 1a,2a,1b ILs (conc. = 25 µM). Control experiment represents untreated calcofluor white-stained cells. Scale bar = 2.5 µm. (B) FBS-induced hyphae formation after 2 h treatment with 1a,2a,1b ILs (conc. = 25 µM). Control condition was C. albicans treated with FBS only. Scale bar = 10 µm. (C) Relative ALS1 and ALS5 gene expression in C. albicans following a 2 h treatment with 1a,2a,1b ILs (conc. = 25 µM). Gene expression levels are reported as means of 2^−∆∆CT values (n = 6) ± SD; normalized to 100% for untreated cells (control). Statistical analyses were performed by comparing expression under treatment with each IL to untreated cells. * p < 0.05.
(§3) YPD-grown C. albicans cells were pelleted, washed with PBS and treated with ILs (conc. = 25 µM) for 2 h at 37 °C. Next, the cells were pelleted, and concentrated (PBS; OD600 = 20). RNA was isolated using the Total RNA Mini Kit (A&A Biotechnology, Gdańsk, Poland). Synthesis of cDNA and calculation of gene expression levels were performed as previously described. The following gene-specific primers were used: ACT1_F (5′-TCCAGCTTTCTACGTTTCCA-3′), ACT1_R (5′-GTCAAGTCTCTACCAGCCAA-3′), ALS1_F (5′-TGTTGGTGTGACTACTTCCT-3′), ALS1_R (5′-TGT ACC ACT GTG TCA AT-3′), ALS5_F (5′-CTCCACTAGTTATGGGGATGT-3′) and ALS5_R (5′-TGAGGGAGAAATATAAGCGTCA-3′).

ALS1 = assay: as above; format: cell-based, C. albicans; details: ILs 25 µM, 2 h; relative to untreated cells (100%)
Procedure: as §1, §2, §3

sheep erythroid PMs = assay: Hemolysis assay; format: cell-based; details: sheep RBCs
Procedure: To examine any possible toxic effect towards animal cells, ILs were tested for their lytic activity on sheep erythroid PMs, in comparison to AMB (Table 3). For this part of study, higher concentrations were selected, corresponding to MFC values of tested fungi (12.5; 25 and 50 µM in case of ILs, and 0.25; 0.5 and 1 µM in case of AMB, Table 1). The compounds were ranked in terms of hemolytic activity as follows: 1a > 1b > 2a. IL with alkoxymethyl chain (2a) produced <5% hemolysis, regardless of the concentration used. Compounds with alkyl substituents (1a and 1b) were more hemolytic in 12.5 than in 25 µM concentrations, and in the highest concentration (50 µM), both compounds produced >10% and >5% hemolysis, respectively.
ILs were tested for hemolytic activity, as described previously. Briefly, 5 mL of fresh sheep blood was centrifuged (2000 rpm, 15 min), washed with PBS and resuspended in PBS to achieve hematocrit level of 50%. Red blood cells (RBCs) were treated with ILs (concentrations = 12.5, 25 and 50 µM) for 2 h at 37 °C. Afterwards, RBCs were centrifuged (2000 rpm, 5 min) and the absorbance of the supernatant was measured at 540 nm (ASYS UVM 340 Biogenet). The percentage of hemolysis was determined in comparison to the hemoglobin absorbance released by a 1% SDS solution (100% hemolysis).

C. albicans [2] = assay: Calcofluor white staining (cell wall integrity); format: cell-based; details: ILs 25 µM, 2 h, 37 °C
Procedure: as §1
Calcofluor white was used to assess cell wall integrity in C. albicans, following our protocol. YPD-grown C. albicans cells were pelleted, washed with PBS and treated with ILs (conc. = 25 µM) for 2 h at 37 °C. Afterwards, the samples were washed with PBS, stained with calcofluor white (final conc. = 25 µM) for 5 min. Then, cell suspensions were washed with PBS, pelleted and observed under the Zeiss (Poznań, Poland) Axio Imager A2 microscope equipped with Zeiss Axiocam 503 mono microscope camera and the Zeiss HBO100 mercury lamp.

[3] = ILs conc. 12.5 µM, 2 h, 37 °C, 1% SDS = 100% hemolysis
[4] = ILs conc. 25 µM, 2 h, 37 °C, 1% SDS = 100% hemolysis
[5] = ILs conc. 50 µM, 2 h, 37 °C, 1% SDS = 100% hemolysis

SMILES | Percentage of cells forming hyphae (C. albicans [1]) | Reduction of ALS5 gene expression (ALS5) | Reduction of ALS1 gene expression (ALS1) | Hemolytic activity (sheep erythroid PMs; [3]) | Hemolytic activity (sheep erythroid PMs; [4]) | Hemolytic activity (sheep erythroid PMs; [5]) | Calcofluor white staining of chitin (cell wall integrity) (C. albicans [2]) | Hemolytic activity (sheep erythroid PMs; regardless of the concentration used (12.5; 25 and 50 µM))
CCCCCCCCCn1cc[n+](CO[C@@H]2C[C@H](C)CC[C@H]2C(C)C)c1 [1a, 1-[(1R,2S,5R)-(−)-menthoxymethyl]-3-nonylimidazolium chloride] | < 1% | 10% | 20% | 4.81 ± 0.02 % | 1.51 ± 0.53% | 11.56 ± 2.13% | well-defined, intense chitin fluoresce with clearly visible bud scars, comparable with the control staining | –
CCCCCCCCCCn1cc[n+](CO[C@@H]2C[C@H](C)CC[C@H]2C(C)C)c1 [1b, 3-decyl-1-[(1R,2S,5R)-(−)-menthoxymethyl]imidazolium chloride] | < 1% | 40% | 45% | 2.1 ± 0.36% | 3.01 ± 0.39% | 3.23 ± 0.6% | well-defined, intense chitin fluoresce with clearly visible bud scars, comparable with the control staining | –
CCCCCCCCCOCn1cc[n+](CO[C@@H]2C[C@H](C)CC[C@H]2C(C)C)c1 [2a, 1-(1R,2S,5R)-(−)-menthoxymethyl-3-nonyloxymethylimidazolium chloride] | 78.2 ± 17.2% | 55% | 50% | 4.55 ± 0.82% | 1.78 ± 0.44% | 6.09 ± 0.48 % | low fluorescence intensity and thinner calcofluor white-stained chitin layer surrounding cells than the controls | < 5%

From paper PMC8304783, “Antiadhesive Properties of Imidazolium Ionic Liquids Based on (−)-Menthol Against Candida spp” (International Journal of Molecular Sciences, 2021)
